In brackets after ≈: the same amount, converted by molar mass.
How the values were obtained:
[1] = test system: Hepatitis B virus; experiment: Antiviral activity against HBV infected in human HepG2.2.15 cells assessed as reduction in HBV DNA replication measured after 5 days by qPCR analysis; type: functional, organism-based; settings: HepG2.2.15, 120 h
[2] = Cytotoxicity against human HepDE19 cells assessed as reduction in cell viability measured after 5 days by CCK-8 method; type: functional; settings: HepDE19, 120 h, time 5 day
[3] = Metabolic stability in mouse liver microsomes assessed as clearance at 1 uM preincubated for 10 mins and measured upto 30 mins in presence of NADPH generating system by LC-MS/MS analysis; type: ADME, Microsome; settings: time < 40 min
[4] = Metabolic stability in human liver microsomes assessed as clearance at 1 uM preincubated for 10 mins and measured upto 30 mins in presence of NADPH generating system by LC-MS/MS analysis; type: ADME, Microsome; settings: time < 40 min
[5] = Lyophilization solubility of the compound in phosphate buffer at pH 6.5 incubated for 1 hr under stirring condition and 2 hrs under shaking condition by HPLC-UV analysis; type: physicochemical
[6] = Selectivity index, ratio of CC50 for human HepDE19 cells assessed as reduction in cell viability to EC50 for HBV infected in human HepG2.2.15 cells assessed as reduction in HBV DNA replication; type: toxicity, cell-based; settings: HBV-infected HepG2.2.15 cells (EC50)

Structure (SMILES)	EC50 [1] [µM]	CC50 [2] [µM]	CLhep predicted at 1 µM [3] [mL/min/kg]	CLhep predicted at 1 µM [4] [mL/min/kg]	solubility at 3 h [5] [µg/mL]	selectivity ratio [6]
O=C(Nc1cccnn1)N1CCn2ncc(-c3ccc(F)cc3)c2C1	> 10	> 100	34	7	2 (≈ 5.91 µM)	
O=C(Nc1ccc(F)c(F)c1)N1CCn2ncc(-c3ccc(F)cc3)c2C1	0.155	34	65	16		222
O=C(Cc1ccccc1)N1CCn2ncc(-c3ccc(F)cc3)c2C1	3.14	> 100				> 32
Cc1cccc(NC(=O)N2CCn3ncc(-c4ccc(F)cc4)c3C2)c1	0.131	88				672
C[C@@H]1CN(C(=O)Nc2ccc(F)c(Cl)c2)Cc2c(-c3ccc(F)cc3)cnn21	0.037	97				2620
O=C(Nc1ccccn1)N1CCn2ncc(-c3ccc(F)cc3)c2C1	> 10	> 100	80	17	2 (≈ 5.93 µM)	
O=C(Nc1ccccc1F)N1CCn2ncc(-c3ccc(F)cc3)c2C1	0.939	12				13
O=C(Nc1ccc(F)c(Cl)c1)N1CCn2ncc(N3CCOCC3=O)c2C1	0.155	> 100	20	6.2	158 (≈ 401 µM)	> 645
O=C(Nc1ccc(Cl)cc1)N1CCn2ncc(-c3ccc(F)cc3)c2C1	0.366	29				79
O=C(Nc1cc(F)cc(F)c1)N1CCn2ncc(-c3ccc(F)cc3)c2C1	0.219	11				49
O=C(NC1CCCC1)N1CCn2ncc(-c3ccc(F)cc3)c2C1	1.85	> 100				> 54
O=C(Nc1cc(F)c(F)c(F)c1)N1CCn2ncc(N3CCCC3=O)c2C1	0.252	26	51	6.2	150 (≈ 395 µM)	101
O=C(Nc1ccccc1)N1CCn2cnc(-c3ccc(F)cc3)c2C1	0.286	> 100	76	14	< 1	> 349
O=C(Nc1ccc(F)c(Cl)c1)N1CCn2ncc(N3CCOCC3)c2C1	0.266	> 100	34	7.2	170 (≈ 448 µM)	> 376
O=C(Nc1ccccc1)N1CCn2nnc(-c3ccc(F)cc3)c2C1	0.411	> 100	87	14	32 (≈ 94.9 µM)	> 243
C[C@H]1[C@H](C)n2ncc(N3CCCC3=O)c2CN1C(=O)Nc1cc(F)c(F)c(F)c1	0.052	> 100	73	15	525 (≈ 1290 µM)	> 1920
O=C(Nc1ccc(F)c(Cl)c1)N1CCn2ncc(N3CCCC3)c2C1	0.22	97	79	16	134 (≈ 368 µM)	440
C[C@H]1Cn2ncc(N3CCOCC3=O)c2CN1C(=O)Nc1cc(F)c(F)c(F)c1	0.063	> 100	29	6.2	415 (≈ 1010 µM)	> 1590
C[C@H]1Cn2ncc(-c3ccc(F)cc3)c2CN1C(=O)Nc1ccc(F)c(Cl)c1	0.012	26			< 1	2170

Structure (SMILES)	EC50 [1] [µM]	CC50 [2] [µM]	CLhep predicted at 1 µM [3] [mL/min/kg]	CLhep predicted at 1 µM [4] [mL/min/kg]	solubility at 3 h [5] [µg/mL]	selectivity ratio [6]
O=C(Nc1ccccc1Cl)N1CCn2ncc(-c3ccc(F)cc3)c2C1	> 10	> 100				
O=C(Nc1ccc(F)c(Cl)c1)N1CCn2ncc(N3CCCC3=O)c2C1	0.052	> 100	65	7.8	160 (≈ 423 µM)	> 1930
O=C(Nc1cccnc1)N1CCn2ncc(-c3ccc(F)cc3)c2C1	3.03	> 100	49	6	98 (≈ 290 µM)	> 33
O=C(Nc1ccc(F)c(Cl)c1)N1CCn2ncc(-c3ncc(F)cn3)c2C1	0.128	32	69	14	6 (≈ 15.4 µM)	250
O=C(Nc1ccc(F)c(Cl)c1)N1CCn2ncc(NC3CCCC3)c2C1	2.3	> 100	76	19	< 1	> 43
Cc1ccc(NC(=O)N2CCn3ncc(-c4ccc(F)cc4)c3C2)cc1	1.2	34				28
O=C(Nc1cccc(F)c1)N1CCn2ncc(-c3ccc(F)cc3)c2C1	0.414	32				76
O=C(Nc1cccc(Cl)c1)N1CCn2ncc(-c3ccc(F)cc3)c2C1	0.308	87	71	18	< 1	284
O=C(Nc1ccc(F)c(Cl)c1)N1CCn2ncc(-c3ccccc3F)c2C1	0.033	16	74	19	< 1	476
CC1c2c(-c3ccc(F)cc3)cnn2CCN1C(=O)Nc1ccccc1 (configuration not stated)	1.85	45			< 1	24
CCc1cccc(NC(=O)N2CCn3ncc(-c4ccc(F)cc4)c3C2)c1	0.248	55				220
O=C(NCc1ccccc1)N1CCn2ncc(-c3ccc(F)cc3)c2C1	1.44	91				63
O=C(c1ccccc1)N1CCn2ncc(-c3ccc(F)cc3)c2C1	3.76					
CCCc1cccc(NC(=O)N2CCn3ncc(-c4ccc(F)cc4)c3C2)c1	2.71	13			4.4 (≈ 11.6 µM)	5
O=C(Nc1cc(F)c(F)c(F)c1)N1CCn2ncc(-c3ccc(F)cc3)c2C1	0.387	31	63	16		80
C[C@@H]1Cn2ncc(-c3ccc(F)cc3)c2CN1C(=O)Nc1ccc(F)c(Cl)c1	0.111	26			< 1	234
CN(C(=O)N1CCn2ncc(-c3ccc(F)cc3)c2C1)c1ccccc1	2.19	93				42
Cc1cc(NC(=O)N2CCn3ncc(-c4ccc(F)cc4)c3C2)ccc1F	0.032	26	68	16		830
C[C@H]1CN(C(=O)Nc2ccc(F)c(Cl)c2)Cc2c(-c3ccc(F)cc3)cnn21	0.133	28				210
